Marks after values point to notes of the source that are not given here. Where no end group is shown, it is not given here.
Tests used:
[1] = test system: thoracic aortas of hypertensive rats by pressure overload; assay: Goldblatt model: aortic hypertrophy by morphometry; assay type: in vivo, rat; details: GB rats, thoracic aorta
Description: (§1) Lewis normotensive rats (weight 150±10 g), which were separated randomly into the experimental hypertension model group or GB (Ocaranza et al. J. Hypertens. 20:413-20, 2002) or control group (S) were used. The latter corresponded to pseudo-operated animals. All animals were maintained under controlled conditions of light and darkness and had free access to food and water. Four weeks after surgery and at a blood pressure above 140 mmHg, GB rats were randomized for the chronic administration of angiotensin-(1-9) through an osmotic pump (602 ng kg^−1min^−1) via the jugular vein during two weeks. The animals were euthanized after 6 weeks post-surgery.
(§2) Aortic hypertrophy was determined by morphometry. Sections of the descending aorta of 5 μm thick, which were previously fixed in Bouin (1.3% picric acid, 9.5% formaldehyde and 4.8% acetic acid) for 24 hours, embedded in paraffin and stained with hematoxylin-eosin, were used, to be examined later in a light microscope as described by Igase et al. (Am. J. Physiol. 289:H1013-9, 2005). Briefly, images of the aortas were captured by a video camera (Nikon) fixed to a microscope (Nikon), and projected on a monitor; using the software Nis-Element. Lumen areas (LA) and total areas (TA) were calculated and recorded. The tunica media area (TMA) was obtained from the difference between the TA and LA of the aorta. The tunica media thickness (TMT) was defined as the region delimited by the external elastic lamina (EEL) and internal elastic lamina (IEL).

[2] = test system: thoracic aortas of hypertensive rats by angiotensin II infusion; assay: Angiotensin II infusion model: aortic hypertrophy by morphometry; assay type: in vivo, rat; details: thoracic aorta, 14 days infusion
Procedure: Rats were subjected to the model of angiotensin II infusion (Grobe et al.: Am. J. Physiol. 292: H736-42, 2007). The animals were separated randomly into the following experimental groups: controls (Sham or pseudo-operated), infused with angiotensin II (300 ng/kg min), infused with angiotensin II and angiotensin-(1-9) (300 ng/kg min and 602 ng/kg min, respectively), and then infused with angiotensin II, angiotensin-(1-9) and the angiotensin-(1-7) receptor antagonist, A779 (300 ng/kg min, 602 ng/kg min, and 100 ng/kg min, respectively). In all cases the pumps operated at a flow of 0.5 μL/h and were implanted in the right jugular vein through a catheter fitted in an intrascapular subcutaneous pocket under anesthesia with ketamine HCl/xylazine (35 and 7 mg/kg i.p., respectively), for a period of 14 days.
as §2

[3] = test system: cardiomyocyte hypertrophy of hypertensive rats by pressure overload; assay: Goldblatt model: cardiomyocyte area and perimeter; assay type: in vivo, rat; details: GB rats
Description: as §1
The middle portion of the left ventricle (LV) was dehydrated at room temperature for 24 h in Bouin and then embedded in paraffin. Sections of 10-15 μm thick were taken and stained with hematoxylin-eosin, to be examined later in a light microscope in order to observe their general morphological characteristics. Cardiomyocyte size was determined according to Nakamura et al. (Circulation, 98:794-9, 1998). […] The cardiomyocyte area and perimeter were measured and recorded, using the Nis-Element program (Ocaranza et al. J. Hypertens., 28:1054-64, 2010). All measurements were performed by a blinded observer, and at least 80 images of cells per animal, which were randomly selected, were analyzed.

rat mesenteric arteries = assay: Contractility studies in perfused, pressurized mesenteric arteries; details: arteries with intact endothelium as compared to arteries without endothelium
Procedure: The change in diameter of rat resistance (mesenteric) arteries was determined, they were then perfused and pressurized under physiological conditions, in response to different substances, according to a methodology previously described (Gonzalez et al. Hypertension 45:853-9, 2005). Briefly, male rats (Sprague Dawley, 150-200 g) were euthanized for dissection of mesenteric vascular territory, avoiding direct manipulation of arterial or venous tissue. Mesenteric small arteries (200-300 micrometers) were isolated, surgically eliminating adventitial tissue under a zoom stereo microscope (Olympus SZ61). The arteries were perfused intraluminally into a thermoregulated bath at controlled pressure and flow, with perfusion solution (modified Krebs, KRB) of the following composition, in mmol/L: NaCl, 130; CaCl2, 2.5; NaHCO3, 25; MgSO4, 1.2; NaH2PO4, 1.2; KCl, 4.7; glucose, 5.5, pH 7.4. Before use, KRB was gassed with a mixture of 95% O2 and 5% CO2. For perfusion, the artery was cannulated with a glass micropipette (outer diameter 164μ), secured with 5-0 silk suture. The arteries were perfused with 10-20 μL/min KRB, so as to achieve transmural pressure of 60 mmHg. After a rest period of 20 minutes, each artery was incubated in the presence of a vasoconstrictor (100 μM phenylephrine) for two minutes and an endothelial NO production agonist (1 μM acetylcholine). […]

ED-1 = assay: Goldblatt model: ventricular content of ED-1; assay type: in vivo, rat; details: GB rats, ventricle
Description: as §1
Immunostaining was performed using the streptavidin-biotin-peroxidase method with the inflammation marker ED-1. This is a glycoprotein expressed primarily in the lysosomal membrane of active macrophages (Leskovar et al. J. Exp. Biol. 203:1783-1795, 2000).
In order to block endogenous peroxidase, the samples were deparaffinized, rehydrated and treated with 10% H2O2 in methanol for 1 h. Then, the tissues were incubated with monoclonal antibody anti ED-1 (clone MCA341R, Serotec) diluted 1/1000 in 1% BSA prepared in PBS-0.05% Tween 20 overnight at 4° C. in a humid chamber. The sections were washed three times with 1×PBS-0.05% Tween 20, pH 7.4 for 5 min and incubated with the biotinylated secondary antibody for 30 min at room temperature. […]

## DRVYIHPFH
[1]
  increase in TMA: reduced significantly
  increase in TMA/AL: reduced significantly
  increase in TMT: reduced significantly
[2]
  ratio of tunica media area (TMA) to LA: significantly prevented the increase
  thickness of the tunica media (TMT): significantly prevented the increase
[3]
  decrease of cardiomyocyte area as compared to hypertensive rats: 16%
  decrease of cardiomyocyte perimeter as compared to hypertensive rats: 22%
Rat mesenteric arteries
  diameter of resistance arteries: increased in a dose-dependent manner
ED-1
  # Positive cells (ED-1): 0-20
  Assigned value (ventricular content of ED-1): 1^# (Low number of ED1 and isolated)
